Reference: patent publication US20020091086A1, “Peptides that block viral infectivity and methods of use thereof” (priority 1999, published 2002)
Like-named read-outs stand apart in the source and are kept apart here. Peptide text beside a SMILES is read from it.

Experiments:
[1] = system: HIV-1; settings: for p24 / p24 (OD) / reduction (%): Experiment 5, H9 cells; for reduction of HIV-1 infectivity, p24 antigen in cell supernatants: Table 6
Description: In Experiment 5, (Table 6) approximately 200,000 H9 cells were infected with HIV-1 at 25 TCID50 to test the inhibitory effect of different concentrations of peptides GPG-NH2, GKG-NH2 and CQG-NH2 and combinations of these peptides. As above, H9 cells were resuspended with or without the different peptides at varying concentrations in 1 ml of RPMI 1640 medium supplemented with 10% (v/v) heat-inactivated fetal bovine serum (FBS), penicillin (100 u/ml), streptomycin (100 u/ml), and Polybrene (2 μg/ml). Thereafter, viruses were added at 25 TCID50 in a volume of 20-30 μl. Cells were incubated with the indicated virus at 37° C. for 1 hr then pelleted at 170×g for 7 minutes. The cells were then washed three times in RPMI medium without peptides at room temperature and pelleted at 170×g for 7 minutes, as above. After the final wash, the cells were resuspended in RPMI culture medium containing the peptides in a 24-well plate (Costar corporation) and kept at 37° C. in 5% CO2 with humidity.
Culture supernatants were collected when the medium was changed at 4, 7, and 14 days post infection. The replication of each virus was monitored by detecting the presence of p24 in the supernatants. HIV p24 antigen was determined using a commercially available HIV p24 antigen detection kit (Abbott). The results are presented as absorbance values (OD) and higher absorbance indicates a higher protein concentration and greater viral infection. In some cases, serial dilutions of the supernatants were made so as to more accurately detect p24 concentration.
The percent reduction tabulated in Table 6 was calculated by dividing amount of p24 antigen detected in the peptide-treated sample by the amount of p24 antigen detected in the control sample, multiplying this dividend by 100 to obtain a percentage, and subtracting the dividend percentage by 100%.

[2] = system: HIV-1 isolate p7141 (high PI); test: resistant HIV-1 isolates in PBMC, p24 ELISA; format: cell-based; settings: GPG 100 μM, 14 days post infection
[3] = system: HIV-1 RNA; test: Northern blot of HIV-1 RNA in infected H-9 cells; format: cell-based
Description: To study proviral DNA and viral RNA synthesis, DNA and RNA from HIV-1 infected H-9 cells cultured in the presence of a small peptide were prepared at various time points (0-48 h).
By Northern blot analysis, three RNA bands (9.2, 4.3, 2.0 kb) were detected 24-48 h after infection. The 9.2 kb RNA acts as both the genomic RNA and as the mRNA for the gag and pol genes. The 4.3 kb singly-spliced RNA represents at least the env gene, and the multiply-spliced 2 kb RNA encodes for the regulatory genes.

[4] = system: HIV-1Bru wild-type; test: infectivity in MT-2 cells, p24 ELISA, wild-type; format: cell-based
Description: Accordingly, the ability of GPG-NH2 to inhibit the infectivity of wild-type and V3-loop deletion mutants (GPG domain) in MT-2 cells was determined. In these experiments, approximately 200,000 MT-2 cells were infected with HIV-1Bru wild-type and GPG-deleted mutants mp8 and mp10 at 25 TCID50 to test the inhibitory effect of GPG-NH2 The MT-2 cells were resuspended in 1 ml of RPMT 1640 medium supplemented with 10% (v/v) heat-inactivated fetal bovine serum (FBS, GIBCO), penicillin (100μ/ml), streptomycin (100μ/ml) and Polybrene (Sigma 2 μg/ml) with or without the presence of GPG-NH2 at concentration 20 of μM and 100 μM. Thereafter, viruses were added at 25 TCID50 in a volume of 20-30 μl. Cells were incubated with virus at 37° C. for 16 hr then loosely pelleted by centrifugation at 170×g for 7 minutes. The cells were then washed three times in RPMI medium without peptides at room temperature by cell sedimentation at 170×g for 7 minutes as above. After the final wash, the cells were resuspended in RPMI culture medium in 24-well plate (Costar corporation) then kept at 37° C. in 5% CO2 with humidity. Culture supernatants were collected when medium was changed at day 4, 7, 11 and 14 post infection. To monitor the replication of virus, HIV-1 p24 antigen protein in the supernatants from day 7 and 14 was assayed by a ELISA kit (Abbott Laboratories) which has a linear dose-response range from 20 pg to 640 pg of p24 per ml and the p24 amount can be determined with aid of the regression line.

[5] = system: HIV-1; settings: Experiment 6; Day 7 HIV-1; 100 μM; HUT78 cells
Description: In experiment 6 (Table 7 and FIG. 1), approximately 200,000 HUT78 cells were infected with HIV-1 at 25 TCID50 to test the inhibitory effect of GPG-NH2, RQG-NH2, KQG-NH2, ALG-NH2, GVG-NH2, VGG-NH2, ASG-NH2, SLG-NH2, and SPT-NH2. The HUT cells were resuspended in lml of RPMI 1640 medium supplemented with 10% (v/v) heat-inactivated fetal bovine serum (FBS, GIBCO), penicillin (100 u/ml), streptomycin (100 u/ml) and Polybrene (Sigma, 2 μg/ml) with or without the presence of the different small peptides (100 μM) mentioned above. Thereafter, the HIV-1 virus was added at 25 TCID50 in a volume of 20 μl. Cells were incubated with the virus at 37° C. for one hour and, subsequently, the cells were pelleted at 170×g for seven minutes. The cells were then washed three times in RPMI medium without peptides at room temperature by cell sedimentation at 170×g for seven minutes, as above. After the final wash, the cells were resuspended in RPMI culture medium containing the peptides in 24-well plate (Costar corporation) and were kept at 37° C. in 5% CO2 with humidity. Culture supernatants were collected when medium was changed at day 4, 7, and 11 post infection and viral p24 production was monitored by using an HIV-1 p24 ELISA kit (Abbott Laboratories, North Chicago, USA).

Compound | p24 ([1]; Day 7 HIV-1, 100 μM) [pg/mL] | p24 (OD) ([1]; Day 7 HIV-1, 100 μM) | reduction (%) ([1]; Day 7 HIV-1, 100 μM) | p24 ([1]; Day 7 HIV-1, 300 μM) [pg/mL] | p24 (OD) ([1]; Day 7 HIV-1, 300 μM) | reduction (%) ([1]; Day 7 HIV-1, 300 μM) | p24 ([1]; Day 14 HIV-1, 100 μM) [pg/mL] | p24 (OD) ([1]; Day 14 HIV-1, 100 μM) | reduction (%) ([1]; Day 14 HIV-1, 100 μM) | p24 ([1]; Day 14 HIV-1, 300 μM) [pg/mL] | p24 (OD) ([1]; Day 14 HIV-1, 300 μM) | reduction (%) ([1]; Day 14 HIV-1, 300 μM) | reduction of HIV-1 infectivity, p24 antigen in cell supernatants ([1]; 300 μM) [%] | p24 ([1]; Day 7 HIV-1, 1000 μM) [pg/mL] | p24 (OD) ([1]; Day 7 HIV-1, 1000 μM) | reduction (%) ([1]; Day 7 HIV-1, 1000 μM) | p24 ([1]; Day 14 HIV-1, 1000 μM) [pg/mL] | p24 (OD) ([1]; Day 14 HIV-1, 1000 μM) | reduction (%) ([1]; Day 14 HIV-1, 1000 μM) | further results
NCC(=O)N1CCC[C@H]1C(=O)NCC(N)=O [GPG-NH2, glycyl-prolyl-glycine amide] (H-Gly-Pro-Gly-NH2) | 160 | 0.508 OD | 100 | 180 | 0.557 OD | 100 | 663 | 1.76 OD | 100 | 498 | 1.35 OD | 100 |  |  |  |  |  |  |  | p24 ([1]; Day 7 HIV-1, 20 μM): 421 pg/mL; p24 (OD) ([1]; Day 7 HIV-1, 20 μM): 1.159 OD; reduction (%) ([1]; Day 7 HIV-1, 20 μM): 99%; p24 ([1]; Day 14 HIV-1, 20 μM): 40600 pg/mL; p24 (OD) ([1]; Day 14 HIV-1, 20 μM): 1.12 × 10^2 OD; reduction (%) ([1]; Day 14 HIV-1, 20 μM): 97%; % reduction [2]: (100%); HIV-1 p24 [2]: <500 pg/mL; expression of HIV-1 RNAs (9.2, 4.3, 2.0 kb) ([3]; 20 μM, up to 48 h post infection): no inhibitory effect; HIV-1 RNA ([3]; 200 μM and 2,000 μM, 48 h after infection): a reduction of HIV-1 RNA was noticed; p24 ([4]; GPG 20 μM, Day 7, WT): 23900 pg/mL; reduction (%) ([4]; GPG 20 μM, Day 7, WT): 29%; p24 ([4]; GPG 20 μM, Day 14, WT): 223000 pg/mL; reduction (%) ([4]; GPG 20 μM, Day 14, WT): 38%; p24 ([4]; GPG 100 μM, Day 7, WT): 3390 pg/mL; reduction (%) ([4]; GPG 100 μM, Day 7, WT): 90%; p24 ([4]; GPG 100 μM, Day 14, WT): 181000 pg/mL; reduction (%) ([4]; GPG 100 μM, Day 14, WT): 49%; p24 [5]: 560 pg/mL; reduction (%) [5]: 97%
cystyl-glutaminyl-glycine amide [CQG-NH2] | 5620 | 1.51 × 10^1 OD | 86 | 1920 | 0.59 × 10^1 OD | 95 | 1.47e+06 | 0.48 × 10^4 OD | 0 | 2400 | 0.11 × 10^2 OD | 100 | ~100 | 320 | 0.91 | 99 | 280 | 0.13 × 10^1 OD | 100 | 
NCCCC[C@H](NC(=O)CN)C(=O)NCC(N)=O [GKG-NH2, glycyl-lysyl-glycine amide] (H-Gly-Lys-Gly-NH2) | 1830 | 0.566 × 10^1 OD | 95 | 388 | 1.08 OD | 99 | 551000 | 1.48 × 10^3 OD | 61 | 870 | 0.33 × 10^1 OD | 100 | ~100 | 273 | 0.79 | 100 | 240 | 0.11 × 10^1 OD | 100 | 
